According to patent US9943518B2, “Inhibitors of phosphodiesterase type 5A for reducing skeletal muscle fatigue, edema, and damage in a patient having muscle fatigue due to increased age or exercise” (University of Iowa Research Foundation, priority 2008, dated 2018):
“Also recorded” adds a separate entry of the source.

Legend:
wild-type mice [1] = test: Exercise-activity assay in wild-type mice; format: in vivo, mouse
wild-type and mdx mice = conditions: Thomas et al. 1998; cited from earlier work
rats = conditions: Wang et al. 2001; cited from earlier work
[2] = system: dystrophic or nNOS-null mice; test: Exercise-activity assay in dystrophic or nNOS-null mice; format: in vivo, mouse
human forearm = conditions: local intra-arterial infusion, Seddon et al. 2008; cited from earlier work
wild-type mice [3] = conditions: Kinugawa et al. 2005; cited from earlier work
mdx mice = test: Exercise-activity assay (mild treadmill exercise, then open-field activity chamber) in mdx mice; format: in vivo, mouse; conditions: treatment before mild treadmill exercise
mammals = conditions: Barbato et al. 2005; cited from earlier work
wild-type mice [4] = conditions: Miki et al. 2002; cited from earlier work
[5] = system: DGC models of muscular dystrophy; test: Serum creatine kinase following exercise; format: in vivo, mouse; conditions: mice subjected to eccentric contractions, 2 hours post-exercise
Experimental: In the assay, mice are initially placed in an activity cage for thirty minutes, and different activity measurements are measured and monitored during this time frame. The mice are then bled to measure serum creatine kinase (CK) levels and then the mice are injected with Evans Blue Dye. […]. Twenty-four hours later, the mice are then subject to a ten minute exercise protocol on a treadmill with a fifteen degree downhill incline at fifteen meters per minute. Following the exercise protocol, the mice are placed back in the activity cage, and post-exercise activity is measured for thirty minutes. […]
The pharmacological screen utilizes an exercise-activity assay to identify compounds that facilitate NO signaling in muscle having mislocalized nNOS. In the assay, mice are initially placed in an activity cage for thirty minutes to measure pre-exercise activity, and different activity measurements are measured and monitored during this time frame. […] Following the exercise protocol, the mice are placed back in the activity cage, and post-exercise activity is measured for thirty minutes. […]
Serum Creatine Kinase Assays. Blood for quantitative, kinetic determination of serum creatine kinase activity was collected either after the pre-exercise activity analysis or 2 hours post-exercise by mouse tail vein bleeds, using a Sarstedt microvette CB 300, from non-anesthetized restrained mice. […]

[6] = system: DGC models of muscular dystrophy; test: Evans Blue Dye uptake in muscle following exercise; format: in vivo, mouse; conditions: mice subjected to eccentric contractions
PDE5A = PDE5A (Homo sapiens, UniProt O76074); test: PDE5A inhibition; format: biochemical; conditions: at plasma concentration from 300 mg/kg/day
[7] = system: DGC models of muscular dystrophy; test: Exercise/activity assay in DGC models of muscular dystrophy; format: in vivo, mouse; conditions: administration prior to exercise
nNOS-null mice = test: Exercise/activity assay in nNOS-null mice; format: in vivo, mouse; conditions: administration prior to exercise

## O=[N+]([O-])c1cccc2c(Br)n[nH]c12 [3-bromo-7-nitroindazole]
wild-type mice [1]
  post-exercise activity: caused post-exercise inactivity

## COC(=O)[C@@H](N)CCCNC(=N)N[N+](=O)[O-] [L-NAME]
wild-type mice [1]
  post-exercise activity: reduced post-exercise activity to levels similar to those in nNOS-null mice post-exercise
wild-type and mdx mice
  femoral blood flow velocity and vascular conductance: decreases femoral blood flow velocity and vascular conductance
  mean arterial pressure: increases mean arterial pressure
rats
  walking speed: severely reduces walking speed
[2]
  post-exercise activity: reduced the activity post-exercise even more

## CNC(=N)NCCC[C@H](N)C(=O)O [L-NMMA]
Human forearm
  resting blood flow: reduces resting blood flow

## NC(=NCCC[C@H](N)C(=O)O)N[N+](=O)[O-] [L-NNA]
wild-type mice [3]
  exercise-induced hyperemia and exercise capacity: prevents adequate exercise-induced hyperemia and limits exercise capacity during exhaustive treadmill running

## CC1(C)CC(O)CC(C)(C)N1[O] [Tempol]
Mdx mice
  post-exercise activity / exaggerated fatigue response to mild exercise: had no effect on the exaggerated fatigue response

## CC(=O)OCC(=O)[C@@]12N=C(C)O[C@@H]1C[C@H]1[C@@H]3CCC4=CC(=O)C=C[C@]4(C)[C@H]3[C@@H](O)C[C@@]12C [deflazacort]
Mdx mice
  post-exercise activity / exaggerated fatigue response to mild exercise: neither treatment resulted in improved post-exercise activity; also recorded: did not ameliorate inactivity post-exercise

## CC(C)Cc1ccc(C(C)C(=O)O)cc1 (stereo not shown) [ibuprofen]
Mdx mice
  post-exercise activity / exaggerated fatigue response to mild exercise: neither treatment resulted in improved post-exercise activity

## O=C(NCCO[N+](=O)[O-])c1cccnc1 [nicorandil]
mammals
  blood pressure: significantly reducing blood pressure in mammals

## CC(N/C(=N\C#N)Nc1ccncc1)C(C)(C)C (stereo not shown) [pinacidil]
wild-type mice [4]
  mean arterial pressure: decreases mean arterial pressure

## CCCc1nn(C)c2c(=O)nc(-c3cc(S(=O)(=O)N4CCN(C)CC4)ccc3OCC)[nH]c12 [sildenafil, 5-[2-ethoxy-5-(4-methylpiperazin-1-yl)sulfonylphenyl]-1-methyl-3-propyl-4H-pyrazolo[5,4-e]pyrimidin-7-one]
[5]
  serum CK following exercise: prevent an increase in serum CK
[6]
  Evans Blue Dye uptake in muscle following exercise: prevent an increase in serum CK and Evans Blue Dye uptake in muscle following exercise
PDE5A
  enzyme activity inhibited: more than 50%
Mdx mice
  post-exercise activity / exaggerated fatigue response to mild exercise: very effective at preventing the exercise-induced fatigue
[7]
  post-exercise activity: very effective at preventing the loss of activity following exercise; also recorded: dramatically increased post-exercise activity
nNOS-null mice
  post-exercise activity: dramatically increased post-exercise activity

## CN1CC(=O)N2[C@H](c3ccc4c(c3)OCO4)c3[nH]c4ccccc4c3C[C@@H]2C1=O [tadalafil]
Mdx mice
  post-exercise activity / exaggerated fatigue response to mild exercise: very effective at preventing the exercise-induced fatigue

## sarafotoxin 6c
wild-type mice [1]
  post-exercise activity: caused post-exercise inactivity

## superoxide dismutase
Mdx mice
  post-exercise activity / exaggerated fatigue response to mild exercise: neither method of SOD exposure had an effect on the exaggerated fatigue response
